Experimental data taken from publication PMC11272598, “RG7774 (Vicasinabin), an orally bioavailable cannabinoid receptor 2 (CB2R) agonist, decreases retinal vascular permeability, leukocyte adhesion, and ocular inflammation in animal models” (Frontiers in Pharmacology, 2024).
Read-outs that look alike come from different tables or passages of the source.

How the values were obtained:
[1] = Plasma protein binding; format: in vitro ADME; conditions: read-out: PPB (fu)
Description: Pooled and frozen plasma from selected species were obtained from commercial suppliers (human […] and mouse […]3-C57; BioreclamationIV, NY, USA). Unbound RG7774 was identified using a 96-well, 150 μL, half-cell capacity Teflon equilibrium dialysis device with a 12–14 kDa molecular weight cut-off membrane (HT-Dialysis; Gales Ferry, CT, USA) to minimize nonspecific binding. RG7774 and positive control (diazepam) were tested with an initial total concentration of 1000 nM (cassettes of 2 to 5 test items). Equal volumes of matrix samples containing RG7774 or diazepam and blank (Soerensen) dialysis buffer were loaded into the opposite compartments of each well. Biological matrix and phosphate buffer were adjusted to pH 7.4 on the day of the experiment. The dialysis block was sealed and incubated at 37 °C in 5% CO2 for 5 h. The seal was removed and matrix and buffer from each dialysis were sampled and analyzed by LC-MS/MS. All protein binding determinations were performed in triplicate. Membrane integrity was tested in the HT-Dialysis device by determining the unbound fraction values for diazepam in each well. At equilibrium, the unbound drug concentration in the biological matrix compartment of the equilibrium dialysis apparatus is the same as the concentration of the compound in the buffer compartment. Thus, the percent unbound fraction was calculated as follows: % fraction unbound = 100 × buffer concentration after dialysis/matrix concentration after dialysis. Device recovery was checked by measuring the concentrations of compound in the matrix before dialysis and calculating the percent recovery (mass balance). Recovery ranging from 80%–120% was required for data acceptance.

[2] = test system: LPS-induced leukocyte adhesion; assay: LPS-induced leukocyte adhesion in rats with EIU (IVM); format: in vivo, Lewis rats; conditions: IV 1.0 mg/kg, 6 h after LPS
Description: Male BALB/c mice aged 8–10 weeks and weighing 21–26 g (Charles River, QC, Canada) were housed in individually ventilated Allentown cages (Allentown Inc., NJ, United States). Maximum density was n = 5 per cage, with the same litter and sex. Male Lewis rats aged 7–10 weeks and weighing 200–300 g (Charles River, QC, Canada) were housed in static cages (Allentown Inc., NJ, United States), n = 2 per cage with the same litter and sex. Both mice and rats were maintained in a controlled environment (21°C–22°C, humidity range 40%–60%, and a 12 h light/dark cycle), with unrestricted access to food and water. All experiments were conducted in accordance with the standards and procedures of the Canadian Council on Animal Care ([CCAC, 2024]) and were approved by the Dalhousie University Committee on Laboratory Animals. The protocol #13-027 was approved for experimental work in mice. […] All experiments were performed and are reported in accordance with the ARRIVE guidelines ([Kilkenny et al., 2010]; [McGrath et al., 2010]). […]
(§1) IVM was used for in vivo investigations of LPS-induced leukocyte recruitment as previously described ([Toguri et al., 2014]). […] The depth of anesthesia throughout the procedure was assessed by the absence of a toe-pinch reflex. […]

[3] = test system: LPS-induced leukocyte adhesion; assay: LPS-induced leukocyte adhesion in mice with EIU (IVM); format: in vivo, BALB/c mice; conditions: 6 h after LPS
Description: Male BALB/c mice aged 8–10 weeks and weighing 21–26 g (Charles River, QC, Canada) were housed in individually ventilated Allentown cages (Allentown Inc., NJ, United States). Maximum density was n = 5 per cage, with the same litter and sex. Male Lewis rats aged 7–10 weeks and weighing 200–300 g (Charles River, QC, Canada) were housed in static cages (Allentown Inc., NJ, United States), n = 2 per cage with the same litter and sex. Both mice and rats were maintained in a controlled environment (21°C–22°C, humidity range 40%–60%, and a 12 h light/dark cycle), with unrestricted access to food and water. All experiments were conducted in accordance with the standards and procedures of the Canadian Council on Animal Care ([CCAC, 2024]) and were approved by the Dalhousie University Committee on Laboratory Animals. The protocol #13-027 was approved for experimental work in mice. […] All experiments were performed and are reported in accordance with the ARRIVE guidelines ([Kilkenny et al., 2010]; [McGrath et al., 2010]).
Mice and rats were anesthetized with 5% isoflurane in 100% O2 and intraperitoneal (IP) injection of sodium pentobarbital (65 mg/kg), respectively, before receiving IVT injections of sterile 0.9% saline solution (control) or 125 ng/μL LPS (L8274, Sigma-Aldrich, St. Louis, MO, United States) diluted in 0.9% saline. Injections were administered through the pars plana using a 30-gauge needle and Hamilton syringe (Hamilton Company, Reno, NV, United States) with the assistance of a WILD M37 dissecting microscope (Leitz Canada, Vaughan, ON, Canada). Mice received 2 μL of the LPS solution; rats received 5 μL. To avoid touching the lens or damaging the eye, the tip of the needle was directed toward the posterior pole and only the beveled tip (2–3 mm) was allowed to enter the vitreal cavity. […]
as §1

## Cn1nnnc1Cn1nnc2c(N3CC[C@H](O)C3)nc(C(C)(C)C)nc21 [RG7774, (S)-1-(5-tert-butyl-3-[(1-methyl-1H-tetrazol-5-yl)methyl]-3H-[1,2,3]triazolo[4,5-d]pyrimidin-7-yl)pyrrolidin-3-ol]
[1]; C57, pooled plasma, pH 7.4, mouse
  fraction unbound at 5 h, 1000 nM: 0.045
[1]; pooled plasma, pH 7.4, human
  fraction unbound at 5 h, 1000 nM: 0.178
[1]; pooled plasma, pH 7.4, rat
  fraction unbound at 5 h, 1000 nM: 0.158
[2]
  decrease in leukocyte adhesion compared to vehicle control: 60%
[3]; single IV 0.03 mg/kg
  decrease in leukocyte adhesion compared to vehicle control: 21%
[3]; single IV 0.3 mg/kg
  decrease in leukocyte adhesion compared to vehicle control: 65%
[3]; single IV 3 mg/kg
  decrease in leukocyte adhesion compared to vehicle control: 82%
